Measurements: PMC6979384, “Characterization of the plant homeodomain (PHD) reader family for their histone tail interactions” (Epigenetics & Chromatin, 2020)

Key:
Test in all cases: Histone peptide microarray
Assay type in all cases: binding, human
Details in all cases: GST-tagged reader, histone peptide array
MLL5 = system: MLL5
Procedure, shortened: (§1)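 A peptide microarray holding 293 synthetic histone peptides with individual or combinatorial modifications was probed with each GST-PHD protein at 0.5 μM. Values represent mean intensity (±SD) from four replicates.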

ING2 = system: ING2
Procedure, shortened: as §1

BPTF (PB) = system: BPTF (PB)
Procedure, shortened: as §1

DIDO1 = system: DIDO1
Procedure, shortened: as §1

DPF2 (PPC2W2) = system: DPF2 (PPC2W2)
Procedure, shortened: as §1

KDM5B (3) = system: KDM5B (3)
Procedure, shortened: as §1

PHF8 = system: PHF8
Procedure, shortened: as §1

ING4 = system: ING4
Procedure, shortened: as §1

ING5 = system: ING5
Procedure, shortened: as §1

TRIM66 (PB) = system: TRIM66 (PB)
Procedure, shortened: as §1

AIRE (PP) = system: AIRE (PP)
Procedure, shortened: as §1

PHF21A = system: PHF21A
Procedure, shortened: as §1

BAZ2B = system: BAZ2B
Procedure, shortened: as §1

CHD5 (PPCC) = system: CHD5 (PPCC)
Procedure, shortened: as §1

PHF2 = system: PHF2
Procedure, shortened: as §1

KDM5A (1) = system: KDM5A (1)
Procedure, shortened: as §1

KDM4C (TTP) = system: KDM4C (TTP)
Procedure, shortened: as §1

KDM5A (3) = system: KDM5A (3)
Procedure, shortened: as §1

PHF13 = system: PHF13
Procedure, shortened: as §1

PHRF1 (RP) = system: PHRF1 (RP)
Procedure, shortened: as §1

PHF23 = system: PHF23
Procedure, shortened: as §1

ING1 = system: ING1
Procedure, shortened: as §1

ING3 = system: ING3
Procedure, shortened: as §1

KDM7A = system: KDM7A
Procedure, shortened: as §1

TAF3 = system: TAF3
Procedure, shortened: as §1

CHD5 (PCC) = system: CHD5 (PCC)
Procedure, shortened: as §1

RAG2 = system: RAG2
Procedure, shortened: as §1

MORC3 (CW) = system: MORC3 (CW)
Procedure, shortened: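 GST-PHD reader, 0.5 μM, probed on 293-peptide histone array (single/combinatorial PTMs); optimized array protocol; signal = mean ± SD, n = 4.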

SP140L = system: SP140L
Procedure, shortened: as §1

KDM5B (1) = system: KDM5B (1)
Procedure, shortened: as §1

CHD4 (PPCC) = system: CHD4 (PPCC)
Procedure, shortened: as §1

[1] = sheet "Array Heatmap", total n = 4
[2] = PB = PHD + Bromodomain, arrays performed twice, n of 4
[3] = PPCC = Dual PHD + Dual Chromodomain, arrays performed twice, n of 4

With H3R17me2a: H3 1-20 [Peptide H3R17me2a] the “Array Heatmap signal, MLL5” value (MLL5; [1]) was 0.5506, the “Array Heatmap signal, ING2” value (ING2; [1]) was 0.6139 and the “Array Heatmap signal, BPTF (PB)” value (BPTF (PB); [1]) was 0.2765. The “Array Heatmap signal, DIDO1” value (DIDO1; [1]) was 0.6933, the “Array Heatmap signal, DPF2 (PPC2W2)” value (DPF2 (PPC2W2); [1]) was 0.5665 and the “Array Heatmap signal, KDM5B (3)” value (KDM5B (3); [1]) was 0.4098. For the same substance, the “Array Heatmap signal, PHF8” value (PHF8; [1]) was 0.337, the “Array Heatmap signal, ING4” value (ING4; [1]) was 0.3252 and the “Array Heatmap signal, ING5” value (ING5; [1]) was 0.2247. For the same substance, the “Array Heatmap signal, TRIM66 (PB)” value (TRIM66 (PB); [1]) was 0.5152, the “Array Heatmap signal, AIRE (PP)” value (AIRE (PP); [1]) was 0.3243 and the “Array Heatmap signal, PHF21A” value (PHF21A; [1]) was 0.2924. The “Array Heatmap signal, BAZ2B” value (BAZ2B; [1]) was 0.3052, the “Array Heatmap signal, CHD5 (PPCC)” value (CHD5 (PPCC); [1]) was 0.3709 and the “Array Heatmap signal, PHF2” value (PHF2; [1]) was 0.6186. The “Array Heatmap signal, KDM5A (1)” value (KDM5A (1); [1]) was 0.3023, the “Array Heatmap signal, KDM4C (TTP)” value (KDM4C (TTP); [1]) was 0.2915 and the “Array Heatmap signal, KDM5A (3)” value (KDM5A (3); [1]) was 0.5532. The “Array Heatmap signal, PHF13” value (PHF13; [1]) was 0.4423, the “Array Heatmap signal, PHRF1 (RP)” value (PHRF1 (RP); [1]) was 0.5177 and the “Array Heatmap signal, PHF23” value (PHF23; [1]) was 0.499. For the same substance, the “Array Heatmap signal, ING1” value (ING1; [1]) was 0.5124, the “Array Heatmap signal, ING3” value (ING3; [1]) was 0.3691 and the “Array Heatmap signal, KDM7A” value (KDM7A; [1]) was 0.2428. For the same substance, the “Array Heatmap signal, TAF3” value (TAF3; [1]) was 0.2956, the “Array Heatmap signal, CHD5 (PCC)” value (CHD5 (PCC); [1]) was 0.5481 and the “Array Heatmap signal, RAG2” value (RAG2; [1]) was 0.3136. The “Array Heatmap signal, MORC3 (CW)” value (MORC3 (CW); [1]) was 0.4952, the “Array Heatmap signal, SP140L” value (SP140L; [1]) was 0.2774 and the “Array Heatmap signal, KDM5B (1)” value (KDM5B (1); [1]) was 0.4837. The “Array Heatmap signal, CHD4 (PPCC)” value (CHD4 (PPCC); [1]) was 0.4461.

In the case of H4K8but (1-23): H4 1-23, the “Array Heatmap signal, MLL5” value (MLL5; arrays performed twice, n of 4) is reported as 0.5606, the “Array Heatmap signal, ING2” value (ING2; arrays performed twice, n of 4) is reported as 0.5968 and the “Array Heatmap signal, BPTF (PB)” value (BPTF (PB); [2]) is reported as 0.3704. For the same substance, the “Array Heatmap signal, DIDO1” value (DIDO1; arrays performed twice, n of 4) was 0.6187, the “Array Heatmap signal, DPF2 (PPC2W2)” value (DPF2 (PPC2W2); PPC2W2 = Dual PHD + C2W2-type Zn-finger, arrays performed twice, n of 4) was 0.6771 and the “Array Heatmap signal, KDM5B (3)” value (KDM5B (3); arrays performed twice, n of 4) was 0.4914. For the same substance, the “Array Heatmap signal, PHF8” value (PHF8; arrays performed twice, n of 4) was 0.3491, the “Array Heatmap signal, ING4” value (ING4; arrays performed twice, n of 4) was 0.503 and the “Array Heatmap signal, ING5” value (ING5; arrays performed twice, n of 4) was 0.3969. For the same substance, the “Array Heatmap signal, TRIM66 (PB)” value (TRIM66 (PB); [2]) was 0.6276, the “Array Heatmap signal, AIRE (PP)” value (AIRE (PP); arrays performed twice, n of 4) was 0.5833 and the “Array Heatmap signal, PHF21A” value (PHF21A; arrays performed twice, n of 4) was 0.5096. For the same substance, the “Array Heatmap signal, BAZ2B” value (BAZ2B; arrays performed twice, n of 4) was 0.516, the “Array Heatmap signal, CHD5 (PPCC)” value (CHD5 (PPCC); [3]) was 0.6043 and the “Array Heatmap signal, PHF2” value (PHF2; arrays performed twice, n of 4) was 0.4448. For the same substance, the “Array Heatmap signal, KDM5A (1)” value (KDM5A (1); arrays performed twice, n of 4) was 0.5298, the “Array Heatmap signal, KDM4C (TTP)” value (KDM4C (TTP); TTP = Tandem Tudor domain + PHD, arrays performed twice, n of 4) was 0.554 and the “Array Heatmap signal, KDM5A (3)” value (KDM5A (3); arrays performed twice, n of 4) was 0.4217. For the same substance, the “Array Heatmap signal, PHF13” value (PHF13; arrays performed twice, n of 4) was 0.6477, the “Array Heatmap signal, PHRF1 (RP)” value (PHRF1 (RP); arrays performed twice, n of 4) was 0.4442 and the “Array Heatmap signal, PHF23” value (PHF23; arrays performed twice, n of 4) was 0.5244. The “Array Heatmap signal, ING1” value (ING1; arrays performed twice, n of 4) was 0.5208, the “Array Heatmap signal, ING3” value (ING3; arrays performed twice, n of 4) was 0.4842 and the “Array Heatmap signal, KDM7A” value (KDM7A; arrays performed twice, n of 4) was 0.4551. The “Array Heatmap signal, TAF3” value (TAF3; arrays performed twice, n of 4) was 0.3164, the “Array Heatmap signal, CHD5 (PCC)” value (CHD5 (PCC); PCC = PHD + Dual Chromodomain, arrays performed twice, n of 4) was 0.8434 and the “Array Heatmap signal, RAG2” value (RAG2; arrays performed twice, n of 4) was 0.2428. The “Array Heatmap signal, MORC3 (CW)” value (MORC3 (CW); CW = CW-type Zn-finger, arrays performed twice, n of 4) was 0.3738, the “Array Heatmap signal, SP140L” value (SP140L; arrays performed twice, n of 4) was 0.3902 and the “Array Heatmap signal, KDM5B (1)” value (KDM5B (1); arrays performed twice, n of 4) was 0.6708. For the same substance, the “Array Heatmap signal, CHD4 (PPCC)” value (CHD4 (PPCC); [3]) was 0.5879.
